From ChEMBL document CHEMBL3608201, “Synthesis and biological evaluation of levofloxacin core-based derivatives with potent antibacterial activity against resistant Gram-positive pathogens” (Bioorg Med Chem Lett, 2015)
Converted amounts (≈) assume the structure as drawn.

Tests used:
Staphylococcus aureus [1] = experiment: Potency index, ratio of MIC for moxifloxacin to MIC for test compound against Staphylococcus aureus ATCC 25923 by standard broth microdilution method; format: functional
Staphylococcus aureus [2] = experiment: Antimicrobial activity against Staphylococcus aureus ATCC 25923 by standard broth microdilution method; format: functional
Staphylococcus aureus [3] = experiment: Antimicrobial activity against levofloxacin-resistant Staphylococcus aureus clinical isolates by standard broth microdilution method; format: functional
Streptococcus pneumoniae [4] = experiment: Antimicrobial activity against penicillin-resistant Streptococcus pneumoniae clinical isolates by standard broth microdilution method; format: functional
Staphylococcus aureus [5] = experiment: Potency index, ratio of MIC for ciprofloxacin to MIC for test compound against Staphylococcus aureus ATCC 25923 by standard broth microdilution method; format: functional
Streptococcus pyogenes [6] = experiment: Antimicrobial activity against Streptococcus pyogenes ATCC 19615 by standard broth microdilution method; format: functional
[7] = Aqueous solubility of the compound in water; format: physicochemical
Escherichia coli [8] = experiment: Antimicrobial activity against ciprofloxacin-resistant Escherichia coli clinical isolates by standard broth microdilution method; format: functional
[9] = system: Staphylococcus epidermidis; experiment: Antimicrobial activity against Staphylococcus epidermidis ATCC 12228 by standard broth microdilution method; format: functional
Escherichia coli [10] = experiment: Antimicrobial activity against Escherichia coli ATCC 25922 by standard broth microdilution method; format: functional
Staphylococcus aureus [11] = experiment: Antimicrobial activity against methicillin-resistant Staphylococcus aureus clinical isolates by standard broth microdilution method; format: functional
Streptococcus pneumoniae [12] = experiment: Antimicrobial activity against Streptococcus pneumoniae ATCC 49619 by standard broth microdilution method; format: functional
Pseudomonas aeruginosa = experiment: Antimicrobial activity against Pseudomonas aeruginosa ATCC 27853 by standard broth microdilution method; format: functional
[13] = system: Staphylococcus epidermidis; experiment: Antimicrobial activity against methicillin-resistant Staphylococcus epidermidis clinical isolates by standard broth microdilution method; format: functional
[14] = Plasma clearance in beagle dog at 18.8 mg/kg, iv administered as single dose; format: ADME, organism-based, Canis lupus familiaris
Streptococcus pyogenes [15] = experiment: Potency index, ratio of MIC for levofloxacin to MIC for test compound against Streptococcus pyogenes ATCC 19615 by standard broth microdilution method; format: functional
Staphylococcus aureus [16] = experiment: Potency index, ratio of MIC for moxifloxacin to MIC for test compound against methicillin-resistant Staphylococcus aureus clinical isolates by standard broth microdilution method; format: functional
[17] = Toxicity in ICR mouse administered as single intravenous dose; format: organism-based; conditions: in vivo
[18] = Volume of distribution in beagle dog at 18.8 mg/kg, iv administered as single dose; format: ADME, organism-based, Canis lupus familiaris; conditions: in vivo
[19] = Cmax in beagle dog at 18.8 mg/kg, iv administered as single dose; format: ADME, organism-based, Canis lupus familiaris; design: dose 18.8 mg/kg, route intravenous; conditions: in vivo
Streptococcus pneumoniae [20] = experiment: Potency index, ratio of MIC for levofloxacin to MIC for test compound against penicillin-resistant Streptococcus pneumoniae clinical isolates by standard broth microdilution method; format: functional
[21] = AUC (0 to infinity) in beagle dog at 18.8 mg/kg, iv administered as single dose; format: ADME, organism-based, Canis lupus familiaris; design: dose 18.8 mg/kg, time infinity, route intravenous; conditions: in vivo
[22] = Tmax in beagle dog at 18.8 mg/kg, iv administered as single dose; format: ADME, organism-based, Canis lupus familiaris; conditions: in vivo
[23] = Elimination half life in beagle dog at 18.8 mg/kg, iv administered as single dose; format: ADME, organism-based, Canis lupus familiaris; conditions: in vivo, read-out: beta t1/2 (converted)
Streptococcus pneumoniae [24] = experiment: Potency index, ratio of MIC for ciprofloxacin to MIC for test compound against penicillin-resistant Streptococcus pneumoniae clinical isolates by standard broth microdilution method; format: functional
Streptococcus pyogenes [25] = experiment: Potency index, ratio of MIC for ciprofloxacin to MIC for test compound against Streptococcus pyogenes ATCC 19615 by standard broth microdilution method; format: functional
Streptococcus pyogenes [26] = experiment: Potency index, ratio of MIC for penicillin to MIC for test compound against Streptococcus pyogenes ATCC 19615 by standard broth microdilution method; format: functional
Streptococcus pneumoniae [27] = experiment: Potency index, ratio of MIC for penicillin to MIC for test compound against penicillin-resistant Streptococcus pneumoniae clinical isolates by standard broth microdilution method; format: functional

Compound: C[C@H]1COc2c(N3CCC(O)CC3)c(F)cc3c(=O)c(C(=O)O)cn1c23
- Ratio (Staphylococcus aureus [1]): 2
- MIC (Staphylococcus aureus [2]): 0.031 µg/mL (≈ 0.0856 µM)
- MIC (Staphylococcus aureus [3]): 0.5 µg/mL (≈ 1.38 µM)
- MIC (Streptococcus pneumoniae [4]): 0.031 µg/mL (≈ 0.0856 µM)
- Ratio (Staphylococcus aureus [5]): 16
- MIC (Streptococcus pyogenes [6]): 0.0625 µg/mL (≈ 0.172 µM)
- solubility [7]: 650 µg/mL (≈ 1790 µM)
- MIC (Escherichia coli [8]): 0.25 µg/mL (≈ 0.69 µM)
- MIC [9]: 0.031 µg/mL (≈ 0.0856 µM)
- MIC (Escherichia coli [10]): 0.125 µg/mL (≈ 0.345 µM)
- MIC (Staphylococcus aureus [11]): 1 µg/mL (≈ 2.76 µM)
- MIC (Streptococcus pneumoniae [12]): 0.125 µg/mL (≈ 0.345 µM)
- MIC (Pseudomonas aeruginosa): 2 µg/mL (≈ 5.52 µM)
- MIC [13]: 0.5 µg/mL (≈ 1.38 µM)

Compound: C[C@H]1COc2c(N3CCC(O)CC3)c(F)cc3c(=O)c(C(=O)O)cn1c23.N=C(N)NCCC[C@H](N)C(=O)O.O
- clearance [14]: 11.6 mL/min/kg
- MIC (Staphylococcus aureus [2]): 0.031 µg/mL
- Ratio (Streptococcus pyogenes [15]): 32
- MIC (Staphylococcus aureus [3]): 0.25 µg/mL
- Ratio (Staphylococcus aureus [16]): 4
- LD50 [17]: 1400 mg/kg
- MIC (Streptococcus pneumoniae [4]): ≤ 0.016 µg/mL
- MIC (Streptococcus pyogenes [6]): ≤ 0.016 µg/mL
- Vd [18]: 3.27 L/kg
- Cmax [19]: 15700 ng/mL
- solubility [7]: 5330 µg/mL
- Ratio (Streptococcus pneumoniae [20]): 32
- MIC (Escherichia coli [8]): 0.25 µg/mL
- AUC(0-inf) [21]: 27000 ng·h/mL
- MIC [9]: 0.031 µg/mL
- MIC (Escherichia coli [10]): 0.125 µg/mL
- Tmax [22]: 4.8 min
- half-life [23]: 3.25 h
- MIC (Staphylococcus aureus [11]): 1 µg/mL
- Ratio (Streptococcus pneumoniae [24]): 32
- Ratio (Streptococcus pyogenes [25]): 32
- MIC (Streptococcus pneumoniae [12]): 0.125 µg/mL
- MIC (Pseudomonas aeruginosa): 2 µg/mL
- Ratio (Streptococcus pyogenes [26]): 64
- Ratio (Streptococcus pneumoniae [27]): 64
- MIC [13]: 1 µg/mL

Compound: C[C@H]1COc2c(N3CCC(O)CC3)c(F)cc3c(=O)c(C(=O)[O-])cn1c23.[Na+]
- MIC (Staphylococcus aureus [2]): 0.0625 µg/mL
- MIC (Staphylococcus aureus [3]): 2 µg/mL
- MIC (Streptococcus pneumoniae [4]): 0.125 µg/mL
- MIC (Streptococcus pyogenes [6]): 0.125 µg/mL
- MIC (Escherichia coli [8]): 0.5 µg/mL
- MIC [9]: 0.0625 µg/mL
- MIC (Escherichia coli [10]): 0.25 µg/mL
- MIC (Staphylococcus aureus [11]): 4 µg/mL
- MIC (Streptococcus pneumoniae [12]): 0.5 µg/mL
- MIC (Pseudomonas aeruginosa): 2 µg/mL
- MIC [13]: 2 µg/mL

Compound: C[C@H]1COc2c(N3CCC(O)CC3)c(F)cc3c(=O)c(C(=O)[O-])cn1c23.[K+]
- MIC (Staphylococcus aureus [2]): 0.0625 µg/mL
- MIC (Staphylococcus aureus [3]): 4 µg/mL
- MIC (Streptococcus pneumoniae [4]): 0.25 µg/mL
- MIC (Streptococcus pyogenes [6]): 0.25 µg/mL
- MIC (Escherichia coli [8]): 1 µg/mL
- MIC [9]: 0.0625 µg/mL
- MIC (Escherichia coli [10]): 0.5 µg/mL
- MIC (Staphylococcus aureus [11]): 8 µg/mL
- MIC (Streptococcus pneumoniae [12]): 0.5 µg/mL
- MIC (Pseudomonas aeruginosa): 2 µg/mL
- MIC [13]: 2 µg/mL
